Results published in patent US20230125380A1, “Topical Compositions Comprising IRAK4 Inhibitors for Use in Treating Dermatological Conditions Characterised by Inflammation” (Dermira, Inc., priority 2019, published 2023).

Assays:
[1] = tested on: human surgical skin (skin resident immune cells), LPS; assay: skin Resident Immune Cell Assay (sRICA), topical screening, TNFα protein expression; type: cell-based; conditions: mean TNFα level in LPS treated samples set to 100%
Experimental: A skin Resident Immune Cell Assay (sRICA) was used to test compounds for reduction of inflammation. In this model, human surgical skin waste was cultured in a transwell system, with the dermis in contact with cell culture media and the stratum corneum exposed to air. To perform the assay, each human skin sample was defatted and dermatomed to 750 μm. Next, 8 mm punch biopsies were obtained and placed in a membrane transwell. The transwells were inserted into culture wells with complete media, and a cocktail of cytokines and antibodies were added to promote skin resident immune cell polarization. The transwells were treated with LPS as a positive control, a vehicle as a negative control, and various dual IRAK/TrkA inhibitors. TNFα protein expression was measured and the mean TNFa protein level in the LPS treated samples was set to 100%.
Overall results for all tested compounds are summarized below in Table 1. Results are expressed as a percentage of TNFα expression relative to the LPS treated sample.

[2] = tested on: rosacea lesional (LS) skin; assay: OLink proteomics of treated lesional papulopustular rosacea biopsies; type: cell-based, human; conditions: LS rosacea biopsy
Experimental: (§1) Five patients with mild-moderate, untreated, papulopustular rosacea (PPR) were enrolled and completed the study. Each patient donated 3 punch biopsies: 1 non-lesional (NL) and 2 lesional (LS) papules. Each biopsy was bisected, resulting in a total of 6 biopsy pieces. NL tissue was left untreated. LS tissue was either left untreated (vehicle), treated with a dual IRAK/TrkA inhibitor according to the present disclosure (1 uM or 500 uM) or clobetasol (1 uM). Tissue was cultured in media at 37 C, 5% CO2 for 24 hours. After culture, the tissue was submerged in RNAlater for subsequent RNA isolation and RNA seq, and conditioned cell media was collected into 2×500 ul aliquots for proteomic analysis.
Proteomic analysis included use of the OLink platform. OLink proteomics, includes immunoassay, extension, preamplification, and detection by microfluidic qPCR, and has a high multiplex ability, but not absolute quantification of protein (only relative expression).
For the OLink proteomics platform, 40 μl of conditioned cell media was sent to OLINK proteomics for evaluation on their human Inflammation Panel (92 proteins):
Protein expression was measured from NL samples, untreated LS samples, and LS samples treated with the compound of Formula (Ia) at 1 μM, the compound of Formula (Ia) at 0.5 μM, or clobetasol at 1 μM. […] CXCL1, β-NGF, LIF, TGF-alpha, IL-8, and IL-6 are all proteins that have reduced expression in NL compared to LS samples.

[3] = tested on: rosacea lesional (LS) skin; assay: RNAseq of treated lesional papulopustular rosacea biopsies; type: cell-based, human; conditions: LS rosacea biopsy, 24 hours culture, 1 μM and 0.5 μM
Experimental: as §1, with “LS tissue was either left untreated (vehicle), treated with a dual IRAK/TrkA inhibitor according to the present disclosure (1 uM or 500 uM) or clobetasol (1 uM).” left out
MMP-1 results are shown in FIG. 4A (RNAseq) and FIG. 4B (OLink); CXCL5 results are shown in FIG. 5A (RNAseq) and FIG. 5B (OLink); and IL-1(3 results are shown in FIG. 6A (RNAseq) and FIG. 6B (OLink).

[4] = tested on: rosacea lesional (LS) skin; assay: MesoScale Discovery (MSD) immunoassay of treated lesional papulopustular rosacea biopsies; type: cell-based, human
Experimental: as §1
Next, the protein expression results obtained using the OLink platform were verified using MesoScale Discovery (MSD). MSD involves coating of carbon electrodes with multiple capture antibodies each coated onto discrete spots in the same plate, and is a multiplex platform that allows for absolute quantification of protein expression, as measured in pg/mL. For MSD quantification, 150 μl of conditioned cell media was analyzed using MSD platform using the human Cytokine 30-plex kit:
The protein expression analysis was repeated using the MSD platform.

[5] = 24 hours following treatment, 1 μM and 0.5 μM

C=C(CC1=CC(C)C=C1C1CCC(CCC)C1=C)C1=CCC(c2cccc(CCC(C)(C)C)c2)=C1 (centres unmarked)
TNFα Protein Expression (% relative to positive control) [1]: 64.03%

Cn1cc(NC(=O)c2coc(-c3ccnc(NCC(F)F)c3)n2)c(N2CCN(CCO)C2=O)n1
TNFα Protein Expression (% relative to positive control) [1]: 72.75%

CC1C=C(CC(=O)c2coc(-c3ccnc(NCC(F)(F)F)c3)c2)C(C2CC(C)[C@H](C)C2=O)=C1 (some centres unmarked)
TNFα Protein Expression (% relative to positive control) [1]: 67.49%

Cn1cc(NC(=O)c2coc(-c3ccnc(NCC(F)(F)F)c3)n2)c(N2CCNC2=O)n1
TNFα Protein Expression (% relative to positive control) [1]: 59.13%

C[C@H]1CCN(c2nn(C)cc2NC(=O)c2coc(-c3ccnc(NCC(F)(F)F)c3)n2)C1=O
TNFα Protein Expression (% relative to positive control) [1]: 92.45%

Cn1cc(NC(=O)c2coc(-c3ccnc(NCC4CC4)c3)n2)c(N2CCN(CCO)C2=O)n1
TNFα Protein Expression (% relative to positive control) [1]: 74.41%

CC(C)N1CCN(c2nn(C)cc2NC(=O)c2coc(-c3ccnc(NCC(F)(F)F)c3)n2)C1=O
TNFα Protein Expression (% relative to positive control) [1]: 90.44%

CN(C)CC1CN(c2nn(C)cc2NC(=O)c2coc(-c3ccnc(NCC(F)(F)F)c3)n2)C(=O)C1(C)C (centres unmarked)
TNFα Protein Expression (% relative to positive control) [1]: 86.94%

CC(C)CN1CCN(c2nn(C)cc2NC(=O)c2coc(-c3ccnc(NCC(F)(F)F)c3)n2)C1=O
TNFα Protein Expression (% relative to positive control) [1]: 89.24%

Cn1cc(NC(=O)c2coc(-c3ccnc(NCC(F)(F)F)c3)n2)c(N2CC(CNC3CC3)C(C)(C)C2=O)n1 (centres unmarked)
TNFα Protein Expression (% relative to positive control) [1]: 72.95%

CC1(C)CCN(c2nn(C3COC3)cc2NC(=O)c2coc(-c3ccnc(NCC(F)(F)F)c3)n2)C1=O
TNFα Protein Expression (% relative to positive control) [1]: 97.84%

Cn1cc(NC(=O)c2coc(-c3ccnc(NCC(F)(F)F)c3)n2)c(N2CCN(CCO)C2=O)n1 [Formula (Ia)]
CXCL6 protein expression (OLink) ([2]; 24 hours following treatment): decreased expression
IL-24 protein expression (OLink) ([2]; 24 hours following treatment): decreased expression
MCP-1 protein expression (OLink) ([2]; 24 hours following treatment): decreased expression
NRTN protein expression (OLink) ([2]; 24 hours following treatment): decreased expression
CXCL1 protein expression (OLink) [2, 5]: statistically significant decrease in expression
IL-6 protein expression (OLink) [2, 5]: statistically significant decrease in expression
IL-8 protein expression (OLink) [2, 5]: statistically significant decrease in expression
LIF protein expression (OLink) [2, 5]: statistically significant decrease in expression
TGF-alpha protein expression (OLink) [2, 5]: statistically significant decrease in expression
β NGF protein expression (OLink) [2, 5]: statistically significant decrease in expression
CXCL5 protein expression (OLink) ([2]; 24 hours, 1 μM and 0.5 μM): downregulated
MMP-1 protein expression (OLink) ([2]; 24 hours, 1 μM and 0.5 μM): downregulated
CXCL5 RNA expression (RNAseq) [3]: significantly downregulated
IL-1β RNA expression (RNAseq) [3]: significantly downregulated
MMP-1 RNA expression (RNAseq) [3]: significantly downregulated
protein expression profile (MSD) ([4]; compared with NL and LS profiles): more similar to the NL profile versus the LS profile
IL-10 protein expression (MSD) ([4]; p=0.002): decreased expression
IL-8 protein expression (MSD) ([4]; p=0.056): decreased expression
MCP-1 protein expression (MSD) ([4]; p=0.09): decreased expression
IL-4 protein expression (MSD) ([4]; p=0.12): decreased expression
IL-6 protein expression (MSD) ([4]; p=0.13): decreased expression
IL-5 protein expression (MSD) ([4]; p=0.2): decreased expression

CNCC1CN(c2nn(C)cc2NC(=O)c2coc(-c3ccnc(NCC(F)(F)F)c3)n2)C(=O)C1(C)C (centres unmarked) [drawing 29]
TNFα Protein Expression (% relative to positive control) [1]: 92.45%

CNCC1CN(c2nn(C)cc2NC(=O)c2coc(-c3ccnc(NCC(F)(F)F)c3)n2)C(=O)C1(C)C (centres unmarked) [drawing 30]
TNFα Protein Expression (% relative to positive control) [1]: 93.64%
